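GI50 is the concentration that inhibits growth by half. TGI marks complete inhibition of growth.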
What was measured:
Assay in all cases: inhibition of tumour cell growth, NCI panel, 384-well format
[1] = system: SF-539 CNS
[2] = system: A498 renal
[3] = system: UACC-257 melanoma
[4] = system: MDA-MB-435 melanoma
[5] = system: HOP-62 NSCLC
[6] = system: OVCAR-5 ovarian
[7] = system: SK-OV-3 ovarian
[8] = system: HCT-116 colon
[9] = system: SK-MEL-28 melanoma
[10] = system: NCI-H226 lung
[11] = system: BT-549 breast
[12] = system: SK-MEL-5 melanoma
[13] = system: MDA-MB-231 breast
[14] = system: SW-620 colon
[15] = system: HCC-2998 colon
[16] = system: TK-10 renal
[17] = system: UO-31 renal
[18] = system: UACC-62 melanoma
[19] = system: SF-268 CNS
[20] = system: RPMI-8226 leukemia
[21] = system: CCRF-CEM leukemia
[22] = system: CAKI-1 renal
[23] = system: MOLT-4 leukemia
[24] = system: T-47D breast
[25] = system: DU-145 prostate
[26] = system: A549 NSCLC
[27] = system: M14 melanoma
[28] = system: IGROV1 ovarian
[29] = system: MALME-3M melanoma
[30] = system: OVCAR-8 ovarian
[31] = system: LOX IMVI melanoma
[32] = system: COLO 205 colon
[33] = system: MCF7 breast
[34] = system: HOP-92 NSCLC
[35] = system: SR leukemia
[36] = system: MDA-MB-468 breast
[37] = system: SNB-19 CNS
[38] = system: KM12 colon
[39] = system: HT29 colon
[40] = system: 786-0 renal
[41] = system: HL-60(TB) leukemia
[42] = system: OVCAR-4 ovarian
[43] = system: SF-295 CNS
[44] = system: SK-MEL-2 melanoma
[45] = system: NCI-H322M lung
[46] = system: NCI/ADR-RES ovarian
[47] = system: ACHN renal
[48] = system: OVCAR-3 ovarian
[49] = system: NCI-H522 lung
[50] = system: RXF 393 renal
[51] = system: K-562 leukemia
[52] = system: HCT-15 colon
[53] = system: SN12C renal
[54] = system: PC-3 prostate
[55] = system: NCI-H23 lung
[56] = system: NCI-H460 NSCLC
[57] = system: U251 glioblastoma

COc1ccc(-c2ccc3ncc4c(c3c2)n(-c2ccc(N3CCNCC3)c(C(F)(F)F)c2)c(=O)n4C)cn1
GI50 [1]: < 10 nM | TGI [1]: 26.3 nM | GI50 [2]: < 10 nM | TGI [2]: < 10 nM | GI50 [3]: 11.7 nM | TGI [3]: 51.5 nM | GI50 [4]: < 10 nM | TGI [4]: 34 nM | GI50 [5]: < 10 nM | TGI [5]: 21.6 nM | GI50 [6]: < 10 nM | TGI [6]: 105 nM | GI50 [7]: < 10 nM | TGI [7]: < 10 nM | GI50 [8]: < 10 nM | TGI [8]: 130 nM | GI50 [9]: < 10 nM | TGI [9]: 42 nM | GI50 [10]: < 10 nM | TGI [10]: 32.5 nM | GI50 [11]: < 10 nM | TGI [11]: 17.2 nM | GI50 [12]: < 10 nM | TGI [12]: 13.8 nM | GI50 [13]: < 10 nM | TGI [13]: 158 nM | GI50 [14]: < 10 nM | TGI [14]: 122 nM | GI50 [15]: < 10 nM | TGI [15]: 103 nM | GI50 [16]: < 10 nM | TGI [16]: 50.6 nM | GI50 [17]: < 10 nM | TGI [17]: 16.7 nM | GI50 [18]: < 10 nM | TGI [18]: 28.3 nM | GI50 [19]: < 10 nM | TGI [19]: 131 nM | GI50 [20]: < 10 nM | TGI [20]: < 10 nM | GI50 [21]: < 10 nM | TGI [21]: 13.6 nM | GI50 [22]: < 10 nM | TGI [22]: 14.9 nM | GI50 [23]: < 10 nM | TGI [23]: < 10 nM | GI50 [24]: < 10 nM | TGI [24]: < 10 nM | GI50 [25]: < 10 nM | TGI [25]: 128 nM | GI50 [26]: < 10 nM | TGI [26]: 25.4 nM | GI50 [27]: < 10 nM | TGI [27]: 64.9 nM | GI50 [28]: < 10 nM | TGI [28]: < 10 nM | GI50 [29]: < 10 nM | TGI [29]: < 10 nM | GI50 [30]: < 10 nM | TGI [30]: 124 nM | GI50 [31]: < 10 nM | TGI [31]: 49 nM | GI50 [32]: < 10 nM | TGI [32]: 21.7 nM | GI50 [33]: < 10 nM | TGI [33]: 120 nM | GI50 [34]: < 10 nM | TGI [34]: 19.1 nM | GI50 [35]: < 10 nM | TGI [35]: < 10 nM | GI50 [36]: < 10 nM | TGI [36]: < 10 nM | GI50 [37]: < 10 nM | TGI [37]: 192 nM | GI50 [38]: < 10 nM | TGI [38]: 141 nM | GI50 [39]: < 10 nM | TGI [39]: 135 nM | GI50 [40]: < 10 nM | TGI [40]: 151 nM | GI50 [41]: 15.5 nM | TGI [41]: 111 nM | GI50 [42]: < 10 nM | TGI [42]: < 10 nM | GI50 [43]: < 10 nM | TGI [43]: 10.5 nM | GI50 [44]: < 10 nM | TGI [44]: 36.5 nM | GI50 [45]: < 10 nM | TGI [45]: 109 nM | GI50 [46]: 107 nM | TGI [46]: 226 nM | GI50 [47]: < 10 nM | TGI [47]: 43.8 nM | GI50 [48]: < 10 nM | TGI [48]: 96 nM | GI50 [49]: < 10 nM | TGI [49]: 50.9 nM | GI50 [50]: < 10 nM | TGI [50]: 19.3 nM | GI50 [51]: < 10 nM | TGI [51]: 124 nM | GI50 [52]: < 10 nM | TGI [52]: 129 nM | GI50 [53]: < 10 nM | TGI [53]: 154 nM | GI50 [54]: < 10 nM | TGI [54]: 106 nM | GI50 [55]: 11.4 nM | TGI [55]: 82 nM | GI50 [56]: < 10 nM | TGI [56]: 83.3 nM | GI50 [57]: < 10 nM | TGI [57]: 134 nM
